Drawing on US6147100A, “Pyrrolidine derivatives having phospholipase A2 inhibitory activity” (Shionogi & Co., Ltd., priority 1997, dated 2000), this text covers IC50 for 34 molecules.

The subject of experiment [1] is production of prostaglandin E2 by human fibroblasts. Put plainly: Inhibition of Production of Prostaglandin E2 in Human Fibroblasts (IL-1 stimulation). The experiment is classed as cell-based. The note with it: Fibroblast; human fibroblasts under stimulation with IL-1. On the procedure:
Test Example 2 Inhibition of Production of Prostaglandin E2 in Human Fibroblasts.
In order to examine the availability of the composition for inhibiting cytosolic phospholipase A2 (cPLA2) on the cells, the compounds of the present invention were tested for the effect on the production of prostaglandin E2 by human fibroblasts under the stimulation with IL-1 according to the method of J. M. Dayer et al (CACHECTIN/TUMOR NECROSIS FACTOR STIMULATES COLLAGENASE AND PROSTAGLANDIN E2 PRODUCTION BY HUMAN SYNOVIAL CELLS AND DERMAL FIBROBLASTS; J. M. Dayer, B, Beutler and A, Cerami, J. EXP. Med., 1985, 162, 2163-2168.).

For the next experiment, the target named is T1, cPLA2 (Homo sapiens, UniProt P47712).
T1 sequence (P47712 1-749): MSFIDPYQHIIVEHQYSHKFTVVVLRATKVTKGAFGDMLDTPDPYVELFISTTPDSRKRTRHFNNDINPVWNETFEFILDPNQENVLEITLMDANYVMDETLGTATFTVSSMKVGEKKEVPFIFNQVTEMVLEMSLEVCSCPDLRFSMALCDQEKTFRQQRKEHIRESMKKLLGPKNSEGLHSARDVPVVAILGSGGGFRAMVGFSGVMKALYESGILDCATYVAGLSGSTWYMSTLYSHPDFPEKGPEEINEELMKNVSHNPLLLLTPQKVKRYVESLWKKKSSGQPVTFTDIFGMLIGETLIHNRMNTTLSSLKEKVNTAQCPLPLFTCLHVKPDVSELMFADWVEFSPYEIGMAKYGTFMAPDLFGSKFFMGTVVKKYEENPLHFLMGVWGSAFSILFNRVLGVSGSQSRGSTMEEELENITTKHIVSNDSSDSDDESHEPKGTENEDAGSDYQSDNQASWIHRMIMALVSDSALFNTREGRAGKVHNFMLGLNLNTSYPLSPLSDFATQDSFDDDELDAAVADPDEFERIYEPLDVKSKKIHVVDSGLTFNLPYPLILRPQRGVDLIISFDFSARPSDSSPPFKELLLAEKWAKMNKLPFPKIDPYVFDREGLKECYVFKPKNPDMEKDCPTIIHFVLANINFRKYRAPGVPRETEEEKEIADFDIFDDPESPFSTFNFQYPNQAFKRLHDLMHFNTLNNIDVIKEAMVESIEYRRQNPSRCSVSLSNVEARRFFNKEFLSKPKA
In words: cPLA2 Inhibitory Activity. The experiment is classed as biochemical. The note with it: 1-palmitoyl-2-[14C]-arachidonoyl-sn-glycero-3-phosphocholine 2.5 μM, sn-1,2-dioleoylglycerol 1.25 μM; pH 7.5, 15 min at 37° C. On the procedure:
Test Example 1 cPLA2 Inhibitory Activity The compounds of the present invention were tested for the cPLA2 inhibitory activity according to the method disclosed in […]. Roberts, […], and J. E. Putnam, J. Biol. Chem., 1991, 266, 5268-5272 as outlined below. […] The reaction mixture includes 50 mM HEPES buffer (pH 7.5), 1 mM calcium chloride, 150 mM sodium chloride, 0.1 mg/ml bovine serum albumin, and 1.7 mM dithiothreitol. To the reaction mixture was added the compound of the present invention and the substrate solution. The reaction was allowed to start by adding an enzyme and continued for 15 min at 37° C. The fatty acids released by the reaction were extracted by the method described in V. P. Dole, and H. Meinertz, J. Biol. Chem., 1960, 235, 2595-2599 and its radiation activity was measured on a liquid scintillation counter. Control was obtained by conducting the experiment in the same manner except that a compound of the present invention was not added.

For `O=C1NC(=O)/C(=C/c2ccc(C(=O)NC[C@@H]3C[C@@H](OCc4ccccc4-c4ccccc4)CN3C(=O)c3ccccc3C(=O)c3ccccc3)cc2)S1` [Compound A-1], the IC50 (in experiment [1]; at cPLA2) was 170 nM each time.

Regarding `O=C1NC(=O)/C(=C/c2ccc(C(=O)NC[C@@H]3C[C@@H](OCc4ccccc4)CN3C(=O)c3ccccc3C(=O)c3ccccc3)cc2)S1` [Compound A-2], the concentration for half-maximal inhibition (IC50) (commonly the concentration at which inhibition is half-maximal) in experiment [1] was 730 nM; at cPLA2 it was 1200 nM.

With `O=C1NC(=O)/C(=C/c2ccc(C(=O)NC[C@@H]3C[C@@H](OCc4ccc(F)cc4F)CN3C(=O)c3ccccc3C(=O)c3ccccc3)cc2)S1` [Compound A-3], the figures for the half-maximal inhibitory concentration (IC50) (in experiment [1]; on cPLA2) were 900 nM and 1400 nM, respectively.

For the molecule `O=C1NC(=O)/C(=C/c2ccc(C(=O)NC[C@@H]3C[C@@H](OCc4ccc(-c5ccccc5)cc4)CN3C(=O)c3ccccc3C(=O)c3ccccc3)cc2)S1` [Compound A-4], the concentration for half-maximal inhibition (IC50) is 210 nM in experiment [1] and 300 nM against cPLA2.

Consider `Cc1ccccc1CO[C@@H]1C[C@@H](CNC(=O)c2ccc(/C=C3\SC(=O)NC3=O)cc2)N(C(=O)c2ccccc2C(=O)c2ccc(F)cc2)C1` [Compound A-5], for which the figures for the IC50 (in experiment [1]; at cPLA2) were 260 nM and 580 nM, respectively.

For the molecule `O=C1NC(=O)/C(=C/c2ccc(C(=O)NC[C@@H]3C[C@@H](OCc4ccccc4-c4ccccc4)CN3C(=O)CCC(=O)c3ccc(F)cc3)cc2)S1` [Compound A-6], the IC50 was 8900 nM in experiment [1] and 4800 nM at cPLA2.

`O=C1NC(=O)/C(=C/c2ccc(C(=O)NC[C@@H]3C[C@@H](OCc4ccccc4-c4ccccc4)CN3C(=O)C3CCCCC3C(=O)c3ccccc3)cc2)S1` (some centres unmarked) [Compound A-10]: the 50% inhibitory concentration (IC50) in experiment [1] stood at 470 nM; at cPLA2, 3200 nM.

Consider `O=C1NC(=O)/C(=C/c2ccc(C(=O)NC[C@@H]3C[C@@H](OCc4ccccc4-c4ccccc4)CN3C(=O)c3ncccc3C(=O)c3ccccc3)cc2)S1` [Compound A-11], for which the IC50 is 230 nM in experiment [1] and 860 nM against cPLA2.

As for `O=C1NC(=O)/C(=C/c2ccc(C(=O)NC[C@@H]3C[C@@H](OCc4ccccc4-c4ccccc4)CN3C(=O)c3sccc3C(=O)c3ccccc3)cc2)S1` [Compound A-12], the IC50 in experiment [1] came to 100 nM; against cPLA2, 3100 nM.

`O=C1NC(=O)/C(=C/c2ccc(C(=O)NC[C@@H]3C[C@@H](OCc4ccccc4-c4ccccc4)CN3C(=O)c3ccccc3C(=O)C3CCCCC3)cc2)S1` [Compound A-14]: the IC50 came out at 330 nM in experiment [1] and 370 nM against cPLA2.

Consider `O=C1NC(=O)/C(=C/c2ccc(C(=O)NC[C@@H]3C[C@@H](OCc4ccccc4-c4ccccc4)CN3C(=O)c3ccccc3C(=O)c3ccc(F)cc3)cc2)S1` [Compound A-16], for which the results for the half-inhibitory concentration (IC50) (in experiment [1]; on cPLA2) were 260 nM and 79 nM, respectively.

Turning to `O=C1NC(=O)/C(=C/c2ccc(C(=O)NC[C@@H]3C[C@@H](OCc4ccccc4-c4ccccc4)CN3C(=O)c3ccccc3C(=O)c3ccoc3)cc2)S1` [Compound A-17], the results for the IC50 (in experiment [1]; on cPLA2) were 700 nM and 1600 nM, respectively.

Take `O=C1NC(=O)/C(=C/c2ccc(C(=O)NC[C@@H]3C[C@@H](OCc4ccccc4-c4ccccc4)CN3C(=O)c3ccccc3C(=O)c3ccsc3)cc2)S1` [Compound A-18]: the figures for the concentration for half-maximal inhibition (IC50) (in experiment [1]; against cPLA2) were 380 nM and 1200 nM, respectively.

In experiment [1], `O=C1NC(=S)S/C1=C\c1ccc(S(=O)(=O)NC[C@@H]2C[C@@H](OCc3ccccc3-c3ccccc3)CN2C(=O)c2ccccc2C(=O)c2ccc(F)cc2)s1` [Compound A-61] gave a half-maximal inhibitory concentration (IC50) of 970 nM. This counts as sub-micromolar.

In experiment [1], `O=C1NC(=S)S/C1=C\c1ccc(S(=O)(=O)NC[C@@H]2C[C@@H](OCc3ccccc3-c3ccccc3)CN2C(=O)c2ccccc2C(=O)c2ccc(F)cc2)cc1` [Compound A-63] gave an IC50 of 900 nM.

The molecule `CC(C)c1cccc(Br)c1O[C@@H]1C[C@@H](CNC(=O)c2ccc(/C=C3\SC(=O)NC3=O)cc2)N(C(=O)c2ccccc2C(=O)c2ccc(F)cc2)C1` [Compound A-100] showed an IC50 in experiment [1] of 320 nM.

With `O=C1NC(=O)/C(=C/c2ccc(CN(C[C@@H]3C[C@@H](OCc4ccccc4-c4ccccc4)CN3C(=O)c3ccccc3C(=O)c3ccc(F)cc3)C(=O)c3ccccc3)cc2)S1` [Compound G-9], on cPLA2, inhibition was half-maximal at 1300 nM (IC50).

The molecule `CN(C(=O)[C@@H]1C[C@@H](OCc2ccccc2-c2ccccc2)CN1C(=O)c1ccccc1C(=O)c1ccc(F)cc1)c1ccc(/C=C2\SC(=O)NC2=O)cc1` [Compound G-10] gave a concentration for half-maximal inhibition (IC50) on cPLA2 of 2400 nM.

In the case of `CN(C(=O)[C@@H]1C[C@@H](OCc2ccccc2-c2ccccc2)CN1C(=O)c1ccccc1C(=O)c1ccc(F)cc1)c1ccc(/C=C2\SC(=S)NC2=O)cc1` [Compound G-11], 4000 nM corresponded to half-maximal inhibition against cPLA2 (IC50). This IC50 is about 1.7-fold higher than that of the molecule before.

As for `CN(C(=O)[C@@H]1C[C@@H](OCc2ccccc2-c2ccccc2)CN1C(=O)c1ccccc1C(=O)c1ccc(F)cc1F)c1ccc(/C=C2\SC(=S)NC2=O)cc1` [Compound G-12], the IC50 at cPLA2 was found to be 2800 nM.

At cPLA2, `CN(C(=O)C[C@@H]1C[C@@H](OCc2ccccc2-c2ccccc2)CN1C(=O)c1ccccc1C(=O)c1ccc(F)cc1)c1ccc(/C=C2\SC(=O)NC2=O)cc1` [Compound G-13] returned an IC50 of 5600 nM.

`O=C1NC(=S)SC1=C[C@@H]1C[C@@H](OCc2ccccc2-c2ccccc2)CN1C(=O)c1ccccc1C(=O)c1ccc(F)cc1` [Compound H-1] registered a 50% inhibitory concentration (IC50) against cPLA2 of 10000 nM. Compared with the last molecule, the IC50 is about 1.8-fold higher.

With `O=C1NC(=O)/C(=C/C2CCN(C(=O)[C@@H]3C[C@@H](SCc4ccccc4-c4ccccc4)CN3C(=O)c3ccccc3C(=O)c3ccc(F)cc3)CC2)S1` [Compound J-5], half-maximal inhibition on cPLA2 (IC50) required 8600 nM.

In turn, `O=C1NC(=S)S/C1=C\C1CCN(C(=O)[C@@H]2C[C@@H](SCc3ccccc3-c3ccccc3)CN2C(=O)c2ccccc2C(=O)c2ccc(F)cc2)CC1` [Compound J-6] registered a 50% inhibitory concentration (IC50) against cPLA2 of 13000 nM.

For `CN(Cc1ccccc1)[C@@H]1C[C@@H](CNC(=O)c2ccc(/C=C3\SC(=O)NC3=O)cc2)N(C(=O)c2ccccc2C(=O)c2ccc(F)cc2)C1` [Compound M-1], the concentration for half-maximal inhibition (IC50) at cPLA2 worked out at 1500 nM.

At cPLA2, `CN(Cc1ccccc1)[C@@H]1C[C@@H](CNC(=O)c2ccc(/C=C3\SC(=S)NC3=O)cc2)N(C(=O)c2ccccc2C(=O)c2ccc(F)cc2)C1` [Compound M-2] displayed an IC50 of 1400 nM.

`CC(C)N(Cc1ccccc1)[C@@H]1C[C@@H](CNC(=O)c2ccc(/C=C3\SC(=S)NC3=O)cc2)N(C(=O)c2ccccc2C(=O)c2ccc(F)cc2)C1` [Compound M-4]: half-maximal inhibition against cPLA2 (IC50) was put at 140 nM.

At cPLA2, `CC(C)CN(C(c1ccccc1)c1ccccc1)[C@@H]1C[C@@H](CNC(=O)c2ccc(/C=C3\SC(=O)NC3=O)cc2)N(C(=O)c2ccccc2C(=O)c2ccc(F)cc2)C1` [Compound M-13] gave a 50% inhibitory concentration (IC50) of 13 nM. Against the preceding molecule, the IC50 is about 11-fold lower.

At cPLA2, `CC(C)CN(CC(C)C)[C@@H]1C[C@@H](CNC(=O)c2ccc(/C=C3\SC(=O)NC3=O)cc2)N(C(=O)c2ccccc2C(=O)c2ccc(F)cc2)C1` [Compound M-15] displayed a half-inhibitory concentration (IC50) of 150 nM. This IC50 lies about 12-fold higher than the previous one.

On cPLA2, `O=C1NC(=O)/C(=C/c2ccc(C(=O)NC[C@@H]3C[C@@H](NC(=O)c4ccccc4-c4ccccc4)CN3C(=O)c3ccccc3C(=O)c3ccc(F)cc3)cc2)S1` [Compound M-16] came in with a half-inhibitory concentration (IC50) of 2000 nM.

For `CC(C)CN(Cc1ccccc1-c1ccccc1)[C@@H]1C[C@@H](CNC(=O)/C=C/c2ccc(/C=C3\SC(=O)NC3=O)cc2)N(C(=O)c2ccccc2C(=O)c2ccc(F)cc2)C1` [Compound M-19], inhibition on cPLA2 was half-maximal at 3.1 nM (IC50).

In the case of `CC(C)CN(C(c1ccccc1)c1ccccc1)[C@@H]1C[C@@H](CNC(=O)/C=C/c2ccc(/C=C3\SC(=O)NC3=O)cc2)N(C(=O)c2ccccc2C(=O)c2ccc(F)cc2)C1` [Compound M-20], on cPLA2, half-maximal inhibition (IC50) was put at 6.4 nM.

Consider `CCN(Cc1ccccc1-c1ccccc1)[C@@H]1C[C@@H](C(=O)Nc2ccc(/C=C3\SC(=O)NC3=O)cc2)N(C(=O)c2ccccc2C(=O)c2ccc(F)cc2)C1` [Compound N-4], for which half-maximal inhibition on cPLA2 (IC50) required 69 nM.

In turn, `CCN(Cc1ccccc1-c1ccccc1)[C@@H]1C[C@@H](C(=O)Nc2ccc(/C=C3\SC(=S)NC3=O)cc2)N(C(=O)c2ccccc2C(=O)c2ccc(F)cc2)C1` [Compound N-5] registered an IC50 against cPLA2 of 240 nM. This IC50 lies about 3.5-fold higher than the previous one.
